These results are taken from patent US20250352550A1, “SUBSTITUTED FUROPYRIDINES FOR THERAPEUTIC USE” (MASARYKOVA UNIVERZITA, priority 2022, published 2025).

Structures are written as SMILES.

Type in all cases: biochemical
One assay concerns the target T1, FLT3 (Homo sapiens, UniProt P36888).
T1 construct: purchased Reaction Biology
T1 sequence (P36888 27-993): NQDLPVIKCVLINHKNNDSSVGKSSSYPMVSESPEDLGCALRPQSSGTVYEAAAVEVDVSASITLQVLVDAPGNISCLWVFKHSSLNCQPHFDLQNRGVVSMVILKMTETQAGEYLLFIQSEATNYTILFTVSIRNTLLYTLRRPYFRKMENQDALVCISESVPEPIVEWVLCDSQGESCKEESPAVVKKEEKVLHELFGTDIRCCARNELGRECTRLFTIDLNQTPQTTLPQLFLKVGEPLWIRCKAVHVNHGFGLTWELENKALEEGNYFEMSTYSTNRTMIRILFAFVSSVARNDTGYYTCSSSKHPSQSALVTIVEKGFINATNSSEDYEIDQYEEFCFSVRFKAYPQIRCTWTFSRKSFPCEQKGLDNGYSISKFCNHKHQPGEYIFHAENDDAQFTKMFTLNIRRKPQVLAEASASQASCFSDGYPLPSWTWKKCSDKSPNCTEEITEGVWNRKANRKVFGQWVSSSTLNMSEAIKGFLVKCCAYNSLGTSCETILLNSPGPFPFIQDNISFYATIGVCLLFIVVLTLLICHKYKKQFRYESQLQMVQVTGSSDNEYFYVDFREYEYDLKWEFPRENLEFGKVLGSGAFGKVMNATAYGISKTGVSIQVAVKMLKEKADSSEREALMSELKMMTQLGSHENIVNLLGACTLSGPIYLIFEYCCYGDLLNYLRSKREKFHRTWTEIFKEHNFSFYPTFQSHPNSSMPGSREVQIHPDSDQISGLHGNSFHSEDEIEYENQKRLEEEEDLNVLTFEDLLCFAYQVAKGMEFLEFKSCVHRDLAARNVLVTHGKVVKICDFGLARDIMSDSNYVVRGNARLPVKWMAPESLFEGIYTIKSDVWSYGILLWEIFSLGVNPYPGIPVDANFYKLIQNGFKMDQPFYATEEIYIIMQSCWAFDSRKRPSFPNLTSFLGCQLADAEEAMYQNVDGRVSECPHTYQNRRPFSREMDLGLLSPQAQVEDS
The experiment in a line: HotSpot radiometric kinase assay (Reaction Biology), FLT3. The following applies: 4 nM kinase, substrate ABLtide 20 μM, 33P-ATP, 120 minutes at room temperature. As for the experimental part: (§1) The compounds were profiled in the HotSpot radiometric assays (Reaction Biology).
(§2) Briefly, • 1. Substrate indicated in Table 1 was dissolved in freshly prepared reaction buffer (20 mM HEPES (pH 7.5), 10 mM MgCl2, 1 mM EGTA, 0.01% Brij35, 0.02 mg/ml BSA, 0.1 mM Na3VO4, 2 mM DTT, 1% DMSO) at the concentration indicated in Table 1. • 2. Corresponding kinase (concentration indicated in Table 1) was added and the mixture was gently mixed. • 3. Tested compound dissolved in DMSO was added into the kinase reaction mixture. • 4. ^33P-ATP (specific activity 0.01 μCi/μL final) was added into the reaction mixture to initiate the reaction. • 5. The kinase reaction was incubated for 120 minutes at room temperature. • 6. Reaction mixture was spotted onto P81 ion exchange paper (Whatman K 3698-915). • 7. The filters were extensively washed with 0.754 phosphoric acid. • 7. The radioactive phosphorylated substrate remaining on the filter paper was measured.
(§3) Kinase activity data were expressed as the percent remaining kinase activity in tested samples compared to the vehicle (DMSO) reactions. IC50 values and curve fits were obtained using Prism4 Software (GraphPad).
(§4) Table 2 summarizes the inhibitory activities of indicated compounds tested in the in vitro kinase assays described above.

For a further assay, the target named is T2, DDR1 (Homo sapiens, UniProt Q08345).
T2 construct: purchased Reaction Biology
The assay can be described thus: HotSpot radiometric kinase assay (Reaction Biology), DDR1. The following applies: 200 nM kinase, substrate IRS1tide 20 μM, 33P-ATP, 120 minutes at room temperature. The method, then: as §1
as §2, with “Reaction mixture was spotted onto P81 ion exchange paper (Whatman K 3698-915). • 7. The filters were extensively washed with 0.754 phosphoric acid. • 7.” left out
as §3

The next assay addresses T3, KHS/MAP4K5 (Homo sapiens, UniProt Q9Y4K4).
T3 construct: purchased Reaction Biology
The assay can be described thus: HotSpot radiometric kinase assay (Reaction Biology), KHS/MAP4K5. Particulars: 1.5 nM kinase, substrate MBP 20 μM, 33P-ATP, 120 minutes at room temperature. As for the experimental part: as §1, §2, §3, §4

T2 sequence (Q08345 19-913): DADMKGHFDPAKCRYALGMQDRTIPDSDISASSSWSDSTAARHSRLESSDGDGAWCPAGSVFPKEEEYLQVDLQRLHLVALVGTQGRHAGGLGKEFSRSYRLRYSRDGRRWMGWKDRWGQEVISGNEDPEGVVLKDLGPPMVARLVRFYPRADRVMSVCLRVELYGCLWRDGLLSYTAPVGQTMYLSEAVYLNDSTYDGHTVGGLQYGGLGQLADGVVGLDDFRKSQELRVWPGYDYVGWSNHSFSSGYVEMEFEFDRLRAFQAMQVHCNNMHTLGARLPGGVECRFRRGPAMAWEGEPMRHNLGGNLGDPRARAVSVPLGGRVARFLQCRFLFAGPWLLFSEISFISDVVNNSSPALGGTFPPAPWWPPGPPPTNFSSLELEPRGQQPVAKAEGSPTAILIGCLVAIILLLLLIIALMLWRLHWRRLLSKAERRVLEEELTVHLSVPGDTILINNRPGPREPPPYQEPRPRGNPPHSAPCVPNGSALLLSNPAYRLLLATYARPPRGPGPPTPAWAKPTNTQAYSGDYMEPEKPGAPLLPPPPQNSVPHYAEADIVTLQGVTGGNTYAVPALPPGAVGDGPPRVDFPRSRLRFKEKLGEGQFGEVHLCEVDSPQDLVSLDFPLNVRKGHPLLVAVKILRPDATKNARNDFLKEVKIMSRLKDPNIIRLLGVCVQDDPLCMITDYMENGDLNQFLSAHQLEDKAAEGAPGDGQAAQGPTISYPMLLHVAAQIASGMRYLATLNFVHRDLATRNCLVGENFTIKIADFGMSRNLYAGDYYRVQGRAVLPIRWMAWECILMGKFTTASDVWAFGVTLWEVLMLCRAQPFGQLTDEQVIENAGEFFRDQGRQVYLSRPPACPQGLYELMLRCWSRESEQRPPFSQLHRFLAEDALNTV
T3 sequence (Q9Y4K4 whole entry): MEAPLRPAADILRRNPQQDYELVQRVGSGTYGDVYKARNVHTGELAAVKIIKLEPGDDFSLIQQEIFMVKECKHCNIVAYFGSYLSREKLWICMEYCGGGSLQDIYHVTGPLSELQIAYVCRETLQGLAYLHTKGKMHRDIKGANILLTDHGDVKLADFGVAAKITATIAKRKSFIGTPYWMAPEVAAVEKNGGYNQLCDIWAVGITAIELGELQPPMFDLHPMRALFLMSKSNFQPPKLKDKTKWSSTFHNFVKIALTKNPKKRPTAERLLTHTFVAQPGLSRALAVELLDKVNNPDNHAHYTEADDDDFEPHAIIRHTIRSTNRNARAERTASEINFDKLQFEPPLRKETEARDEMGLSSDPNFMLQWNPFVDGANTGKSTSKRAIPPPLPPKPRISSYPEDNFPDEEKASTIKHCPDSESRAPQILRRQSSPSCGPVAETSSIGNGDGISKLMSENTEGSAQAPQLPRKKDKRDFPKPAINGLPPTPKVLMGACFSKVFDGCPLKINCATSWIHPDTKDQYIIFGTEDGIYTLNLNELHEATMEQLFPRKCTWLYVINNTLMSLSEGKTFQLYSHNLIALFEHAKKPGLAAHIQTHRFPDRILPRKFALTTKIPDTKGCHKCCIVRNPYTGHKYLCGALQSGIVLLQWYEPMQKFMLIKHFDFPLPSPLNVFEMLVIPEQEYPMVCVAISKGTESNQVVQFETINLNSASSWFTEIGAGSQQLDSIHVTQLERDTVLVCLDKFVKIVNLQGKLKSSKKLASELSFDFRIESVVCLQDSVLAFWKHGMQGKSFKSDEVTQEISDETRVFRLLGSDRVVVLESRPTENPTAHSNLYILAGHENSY

As a reminder, the IC50 is the concentration needed to halve the response being measured. A lower IC50 goes with greater potency in that assay. Consider `CC(C)(C)Sc1cccc(-c2coc3cc(-c4ccc(N5CCNCC5)cc4)cnc23)c1` [Preparative Example 46, 3-(3-(tert-butylthio)phenyl)-6-(4-(piperazin-1-yl)phenyl)furo[3,2-b]pyridine], for which the IC50 was 578 nM against FLT3 and 586 nM against DDR1.

On to `FC(F)(F)c1cccc(-c2coc3cc(-c4ccc(N5CCNCC5)cc4)cnc23)c1` [Preparative Example 73, 6-(4-(piperazin-1-yl)phenyl)-3-(3-(trifluoromethyl)phenyl)furo[3,2-b]pyridine], for which the IC50 against FLT3 was 717 nM; on DDR1, 966 nM.

Take `CN1CCN(c2ccc(-c3cnc4c(-c5cccc(S(C)(=O)=O)c5)coc4c3)cc2)CC1` [Preparative Example 175, 6-(4-(4-methylpiperazin-1-yl)phenyl)-3-(3-(methylsulfonyl)phenyl)furo[3,2-b]pyridine]: the IC50 on FLT3 was 225 nM; at DDR1 it was 290 nM.

`CS(=O)(=O)NCc1cccc(-c2coc3cc(-c4ccc(N5CCNCC5)cc4)cnc23)c1` [Preparative Example 125, N-(3-(6-(4-(piperazin-1-yl)phenyl)furo[3,2-b]pyridin-3-yl)benzyl)methanesulfonamide]: the IC50 against FLT3 amounted to 21 nM; against DDR1, 198 nM.

`COc1ccccc1-c1coc2cc(-c3ccc(N4CCNCC4)cc3)cnc12` [Preparative Example 17, 3-(2-methoxyphenyl)-6-(4-(piperazin-1-yl)phenyl)furo[3,2-b]pyridine]: the IC50 on FLT3 came to 226 nM; against DDR1, 184 nM.

As for `c1cc(-c2coc3cc(-c4ccc(N5CCNCC5)nc4)cnc23)ccn1` [Preparative Example 25, 6-(6-(piperazin-1-yl)pyridin-3-yl)-3-(pyridin-4-yl)furo[3,2-b]pyridine], the IC50 worked out at 49 nM against FLT3 and 791 nM against DDR1.

For `COCc1cccc(-c2coc3cc(-c4ccc(N5CCNCC5)cc4)cnc23)c1` [Preparative Example 70, 3-(3-(methoxymethyl)phenyl)-6-(4-(piperazin-1-yl)phenyl)furo[3,2-b]pyridine], the IC50 is 54 nM at FLT3 and 196 nM at DDR1.

With `c1cncc(-c2coc3cc(-c4ccc(N5CCNCC5)cc4)cnc23)c1` [Preparative Example 11, 6-(4-(piperazin-1-yl)phenyl)-3-(pyridin-3-yl)furo[3,2-b]pyridine], the values for the half-inhibitory concentration (IC50) at FLT3 and on DDR1 were 25 nM and 294 nM, respectively.

With `CCCCOC(=O)c1cccc(-c2coc3cc(-c4ccc(N5CCNCC5)cc4)cnc23)c1` [Preparative Example 167, butyl 3-(6-(4-(piperazin-1-yl)phenyl)furo[3,2-b]pyridin-3-yl)benzoate], the results for the IC50 at FLT3 and at DDR1 were 37 nM and 305 nM, respectively.

As for `Cc1ccc(-c2coc3cc(-c4ccc(N5CCNCC5)cc4)cnc23)cc1` [Preparative Example 43, 6-(4-(piperazin-1-yl)phenyl)-3-(p-tolyl)furo[3,2-b]pyridine], the IC50 against FLT3 turned out to be 175 nM; at DDR1, 126 nM.

In the case of `CN1CCN(c2ccc(-c3cnc4c(-c5cccc(CS(=O)(=O)N(C)C)c5)coc4c3)cc2)CC1` [Preparative Example 145, N,N-dimethyl-1-(3-(6-(4-(4-methylpiperazin-1-yl)phenyl)furo[3,2-b]pyridin-3-yl)phenyl)methane-sulfonamide], the IC50 amounted to 118 nM against FLT3 and 773 nM against DDR1.

For `CN1CCN(c2ccc(-c3cnc4c(-c5ccc(NC(=O)N(C)C)cc5)coc4c3)cc2)CC1` [Preparative Example 253, 3,3-dimethyl-1-(4-{6-[4-(4-methylpiperazin-1-yl)phenyl]furo[3,2-b]pyridin-3-yl}phenyl)urea], the IC50 at FLT3 was 377 nM; against KHS/MAP4K5 it was 181 nM.

Take `Cc1oc2cc(-c3ccc(N4CCN(C)CC4)cc3)cnc2c1-c1ccccc1` [Preparative Example 196, 1-methyl-4-(4-{2-methyl-3-phenylfuro[3,2-b]pyridin-6-yl}phenyl)piperazine]: the IC50 against FLT3 worked out at 96 nM; on DDR1, 148 nM.

Regarding `CN1CCN(c2ccc(-c3cnc4c(-n5ccnc5)coc4c3)cc2)CC1` [Preparative Example 231, 1-{4-[3-(1H-imidazol-1-yl)furo[3,2-b]pyridin-6-yl]phenyl}-4-methylpiperazine], the IC50 stood at 101 nM on FLT3 and 213 nM against DDR1.

For the compound `FC(F)(F)Oc1cccc(-c2coc3cc(-c4ccc(N5CCNCC5)cc4)cnc23)c1` [Preparative Example 113, 6-(4-(piperazin-1-yl)phenyl)-3-(3-(trifluoromethoxy)phenyl)furo[3,2-b]pyridine], the IC50 against FLT3 was determined as 649 nM; at DDR1, 869 nM.

For `c1cc(-c2coc3cc(-c4ccc(N5CCNCC5)cc4)cnc23)co1` [Preparative Example 57, 3-(furan-3-yl)-6-(4-(piperazin-1-yl)phenyl)furo[3,2-b]pyridine], the values for the IC50 on FLT3 and at DDR1 were 22 nM and 172 nM, respectively.

For the compound `CONC(=O)c1cccc(-c2coc3cc(-c4ccc(N5CCN(C)CC5)cc4)cnc23)c1` [Preparative Example 238, N-methoxy-3-{6-[4-(4-methylpiperazin-1-yl)phenyl]furo[3,2-b]pyridin-3-yl}benzamide], the IC50 against FLT3 was 22 nM; at DDR1, 77 nM.

For the compound `COC(=O)c1cccc(-c2coc3cc(-c4ccc(N5CCN(C)CC5)cc4)cnc23)c1` [Preparative Example 237, methyl 3-{6-[4-(4-methylpiperazin-1-yl)phenyl]furo[3,2-b]pyridin-3-yl}benzoate], the IC50 against FLT3 stood at 66 nM; on DDR1 it was 486 nM.

`CN1CCN(c2ccc(-c3cnc4c(-c5cccc([S+](C)[O-])c5)coc4c3)cc2)CC1` (centres unmarked) [Preparative Example 181, 6-(4-(4-methylpiperazin-1-yl)phenyl)-3-(3-(methylsulfinyl)phenyl)furo[3,2-b]pyridine]: the IC50 turned out to be 99 nM against FLT3 and 284 nM on DDR1.

Take `CN1CCN(c2ccc(-c3cnc4c(-c5cccc(CNC(=O)OC(C)(C)C)c5)coc4c3)cc2)CC1` [Preparative Example 135, tert-butyl (3-(6-(4-(4-methylpiperazin-1-yl)phenyl)furo[3,2-b]pyridin-3-yl)benzyl)carbamate]: the IC50 on FLT3 came to 350 nM; against DDR1 it was 423 nM.

On to `Cn1ccc(-c2coc3cc(-c4ccc(N5CCNCC5)cc4)cnc23)n1` [Preparative Example 37, 3-(1-methyl-1H-pyrazol-3-yl)-6-(4-(piperazin-1-yl)phenyl)furo[3,2-b]pyridine], for which the figures for the IC50 against FLT3 and against DDR1 were 282 nM and 222 nM, respectively.

In the case of `CCNS(=O)(=O)Cc1cccc(-c2coc3cc(-c4ccc(N5CCN(C)CC5)cc4)cnc23)c1` [Preparative Example 141, N-ethyl-1-(3-(6-(4-(4-methylpiperazin-1-yl)phenyl)furo[3,2-b]pyridin-3-yl)phenyl)methanesulfonamide], the IC50 against FLT3 was determined as 805 nM; against DDR1, 763 nM.
